{"source": "a melting point compilation (Tetko et al.; mined from patent text by program, amines drawn as free bases though some values may be those of a salt)", "data": [{"units": {"melting point": "°C"}, "values": [{"compound": "COc1c(Br)cc(Br)cc1CC#N", "melting point": "87 to 88"}, {"compound": "CCNS(=O)(=O)c1cccc(OCc2nc3ccccc3s2)c1", "melting point": "111 to 113"}, {"compound": "[N-]=[N+]=Nc1ccc(C(=O)OCCOC(=O)C[C@@H](C(=O)O)n2c3ccccc3c3ccccc32)cc1", "melting point": 55}, {"compound": "COC(=O)C1=C(C(=O)OC)C2OC1c1cc3c(cc12)OCO3", "melting point": "117 to 119"}, {"compound": "C=C(C)C(=O)OCCCc1cc(CCCOC(=O)C(=C)C)c2oc(=O)c(-c3ccc(OC(=O)C(=C)C)cc3)cc2c1", "melting point": 49}, {"compound": "Cc1cc(Cl)cc(C(=NCCC(=O)O)c2ccc(Cl)cc2)c1O", "melting point": 138}, {"compound": "O=C1C2=C(CCCC2)C(=O)N1c1ccc2c(c1)NC(=O)C21CC1", "melting point": "274 to 276"}, {"compound": "COc1cccc2c(NCc3ccccc3C)nc(Cl)nc12", "melting point": "279 to 281"}, {"compound": "Cn1c(=O)[nH]c(=O)n(-c2cc([N+](=O)[O-])c(F)cc2Cl)c1=O", "melting point": "135 to 139"}, {"compound": "C[C@H](Cn1cnc2c(=O)[nH]c(N)nc21)OCP(=O)(O)O", "melting point": "270 to 272"}, {"compound": "CCc1c(O)c(C(C)=O)c(C)c2c1OC(C)(C)CC2C", "note": "(stereo not drawn)", "melting point": "70 to 71"}, {"compound": "OC1CSC(Oc2cnc(-c3ccncc3)c(F)c2)C(O)C1O", "note": "(stereo not drawn)", "melting point": 192}, {"compound": "COC(=O)COc1ccc(NC(=O)CCCCCO)cc1", "melting point": "87.5 to 90.4"}, {"compound": "CC12CC(F)C3C4CCC(=O)C=C4CCC3C1CCC2=O", "note": "(stereo not drawn)", "melting point": "173 to 174"}, {"compound": "C=CCN1CC(=O)N(c2c(C)cccc2C)C1=S", "melting point": "43 to 46"}, {"compound": "Cc1nn(-c2ccccn2)c2ncc(C(=O)NCc3ccccc3)c(O)c12", "melting point": "> 300"}, {"compound": "COC(=O)CCCCCOc1ccc(NC(=O)CO)cc1", "melting point": "91.5 to 94"}, {"compound": "O=Cc1csc(Oc2ccccc2)n1", "melting point": 63}, {"compound": "O=C1C(=Cc2ccncc2)COc2ccccc21", "melting point": 132}, {"compound": "Cc1ccc(Cl)c2sc(N)nc12", "melting point": 206}, {"compound": "COC(=O)C1=C(C)NC(C)=C(C(=O)OC)C1C1CCC(C(=O)OC)C1", "note": "(stereo not drawn)", "melting point": "144 to 145"}, {"compound": "CCOC(=O)c1c(CC)ncnc1NCCc1ccc(CCO)cc1", "melting point": "68 to 71"}, {"compound": "O=C(CCCc1cccnc1)N1CCC(CC(c2ccc(F)cc2)c2ccc(F)cc2)CC1", "melting point": "108 to 110"}, {"compound": "CN(C)C1CC2=CNC=C3C=C(C(N)=O)OCC1=C32", "note": "(stereo not drawn)", "melting point": "182 to 183"}, {"compound": "O=C(NCCO)/C(=C/c1ccc(C(F)(F)F)cc1F)NC(=O)c1ccc(OCCC(F)(F)F)cc1", "melting point": "203 to 205"}, {"compound": "Cc1ccc(-c2nc(C(=O)Nc3nnn[nH]3)c(C)s2)s1", "melting point": "278 to 280"}, {"compound": "O=C(O)c1ccccc1CNC(=O)C1Cc2ccccc2N1S(=O)(=O)c1ccc(-c2cccc(C(F)(F)F)c2)cc1", "note": "(stereo not drawn)", "melting point": 118}, {"compound": "Cc1cc(NC(=O)c2ccn3c2CSC3c2cccnc2)c2ccccc2c1", "note": "(stereo not drawn)", "melting point": 172}, {"compound": "O=C1CCC(O)(c2ccc(Cl)cc2)CC1", "melting point": "138 to 139"}, {"compound": "Cc1nc(-c2ccc(C#N)cc2)sc1C(=O)N[C@H](C)[C@](O)(Cn1cncn1)c1ccc(F)cc1F", "melting point": "109 to 111"}, {"compound": "CC(=O)C=C1C=C(C(C)(C)C)C(=O)C(C(C)(C)C)=C1", "melting point": "70 to 72"}, {"compound": "COC(=O)[C@@H]1C[C@H](C(=O)O)Nc2cc(C)cc(C)c21", "note": "(relative stereo)", "melting point": 173}, {"compound": "CCCCn1c(S)nc2ccccc2c1=O", "melting point": "167 to 172"}, {"compound": "CN(C)Cc1ccc(CSCCN=CNC#N)o1", "melting point": "74 to 76"}, {"compound": "CN(C)C(=O)N(Cc1ccccc1)C(=O)c1cccc(-c2nc(=O)c3ccccc3s2)n1", "melting point": "222 to 224"}, {"compound": "COP(=O)(OC)c1ccc(-c2coc3ccc(-c4nnc(C)o4)cc23)cc1", "melting point": "168 to 169"}, {"compound": "CCN(CC)c1ccc(C2(c3c(C)n(CC)c4ccccc34)OC(=O)c3ccccc32)c(N(CC)CC)c1", "note": "(stereo not drawn)", "melting point": "139 to 140"}, {"compound": "Cn1c(=O)cnn(-c2ccc(Cl)c(C(=O)NCCc3ccccc3Cl)c2)c1=O", "melting point": "157 to 161"}, {"compound": "CS(=O)(=O)c1ccc(C(CC2CCCC2)C(=O)Nc2nccs2)cc1", "note": "(stereo not drawn)", "melting point": "61 to 63"}, {"compound": "COc1nc(C(=O)N(C)Cc2cc(C(F)(F)F)cc(C(F)(F)F)c2)c(-c2ccccc2)c2ccccc12", "melting point": "129 to 130"}, {"compound": "Cc1c(Br)cnc(NC(=O)C2CC2)c1[N+](=O)[O-]", "melting point": 205}, {"compound": "C[C@@H]1OCc2cc3c(nc21)N1[C@H](C3)CN(C(=O)OC(C)(C)C)C[C@H]1C", "melting point": "143 to 144"}, {"compound": "Nc1nc2c(c(=O)[nH]1)n(Cc1ccccc1)c(=O)n2C1OC(CO)C(O)C1O", "note": "(stereo not drawn)", "melting point": 175}, {"compound": "CC1=CC2CC(O)CCC2(C)C2=C1C1CCC(C(C)CCCC(C)C)C1(C)CC2", "note": "(stereo not drawn)", "melting point": "112 to 113"}, {"compound": "Cn1cc(-c2ccc(Cl)cc2)c(=O)c(-c2cccc(Cl)c2)c1", "melting point": "170 to 172"}, {"compound": "NS(=O)(=O)OCCOc1ccc(OCc2ccccc2)cc1", "melting point": "125 to 128"}, {"compound": "CN=c1c2c(C)c(C)n(-c3ccccc3)c2nc(C)n1C", "melting point": "132 to 133"}, {"compound": "CC(=O)c1ccc2c(c1)-c1ccccc1-2", "melting point": "134 to 135"}, {"compound": "COC(=O)Nc1ccc(-c2ncon2)cc1", "melting point": "174 to 176"}, {"compound": "O=C(O)c1ccc(-c2ccc3nnn(Cc4ccc5ncccc5c4)c3n2)cc1", "melting point": "245 to 247"}, {"compound": "CCOC(=O)COc1cc(O)c2c(=O)cc(-c3ccc(OC)c(OCC(=O)N4CCN(Cc5ccc(OC)c(OC)c5OC)CC4)c3)oc2c1", "melting point": "105 to 106"}, {"compound": "Cc1nnc(-c2ccnc(NCc3ccccn3)c2)o1", "melting point": "137 to 138"}, {"compound": "CCCCOc1ccc(S(=O)(=O)C2(C(=O)NO)CCN(Cc3ccc(OC)cc3)CC2)cc1", "melting point": 173}, {"compound": "CSc1sc(C(=O)O)c2c1-c1oc(C)nc1CC2", "melting point": "> 300"}, {"compound": "COc1cc(C=CN(C)C)ccc1[N+](=O)[O-]", "melting point": "57 to 58.5"}, {"compound": "COc1cc(N)c(Cl)cc1C(=O)N[C@H]1CCN(CCCNc2nc3ccccc3s2)C[C@H]1OC", "note": "(relative stereo)", "melting point": 162}, {"compound": "CCOC(=O)C1=Cc2cc(Cl)ccc2NC1C(F)(F)F", "note": "(stereo not drawn)", "melting point": "133 to 134"}, {"compound": "COc1nc(N)nc(OC)c1C1=NCCN1", "melting point": 230}, {"compound": "CCOC(=O)C(C)(C)NC(=O)c1cccc(C2=NC(C)(C)Cc3cc(OC)c4c(c32)CC(C)(C)O4)c1", "melting point": "114 to 115"}, {"compound": "CCCCCCCCCCCCCCOCC(O)CO", "note": "(stereo not drawn)", "melting point": "56 to 57"}, {"compound": "O=S1(=O)NCN(C2CC2)c2c(C(F)(F)F)cccc21", "melting point": "165 to 167"}, {"compound": "CC(C)c1ccc(N(Cc2cnn(C)c2)C(=O)C2CCCc3c(O)cccc32)cc1", "note": "(stereo not drawn)", "melting point": 215}, {"compound": "CCN1C[C@@H](O)[C@H](N(CCc2ccccc2)C(=O)c2ccccc2)C1", "note": "(relative stereo)", "melting point": "71 to 75"}, {"compound": "O=C1C2CCCCC2(Cl)C(=O)N1c1ccc(Cl)cc1", "note": "(stereo not drawn)", "melting point": "116 to 118"}, {"compound": "O=C1c2cc(Sc3ccccc3)c(Sc3ccccc3)cc2C(=O)c2c1c(O)c1cc(Sc3ccccc3)c(Sc3ccccc3)cc1c2O", "melting point": "> 260"}, {"compound": "CC(C)(C)OC(=O)N1C[C@@H](Br)C[C@@H]1C(=O)OCc1ccccc1", "melting point": "87 to 88"}, {"compound": "Nc1ccccc1Cn1[nH]c2ccccc2c1=O", "melting point": "204 to 205"}, {"compound": "COCCOc1cc(N(C)S(=O)(=O)c2ccccn2)c2[nH]c(C3=NCC(CC(=O)N(C)CCO)S3)cc2c1", "note": "(stereo not drawn)", "melting point": "94 to 96"}, {"compound": "COc1ccc(Oc2c(Br)cc(C=O)cc2Br)cc1Cc1ccc(=O)[nH]n1", "melting point": "183 to 184"}, {"compound": "Cc1cn(CC(=O)N(CCNC(=O)OC(C)(C)C)CC(=O)Oc2c(F)c(F)c(F)c(F)c2F)c(=O)[nH]c1=O", "melting point": "174 to 176"}, {"compound": "Cc1nnc(-c2ccc3occ(-c4ccc(S(C)=O)c(OC(F)(F)F)c4)c3c2)o1", "note": "(stereo not drawn)", "melting point": "182 to 183"}, {"compound": "O=C1c2cc([N+](=O)[O-])ccc2OCCN1CCO", "melting point": 151}, {"compound": "Nc1ccc([N+](=O)[O-])cc1S(N)(=O)=O", "melting point": "202 to 204"}, {"compound": "CN(CCc1ccccc1)C(=O)Cn1cc(C=C(C(=O)O)C(C)(C)C)c2cc([N+](=O)[O-])ccc21", "melting point": "140 to 143"}, {"compound": "CCCc1ccc(-c2ccc(=O)[nH]n2)cc1", "melting point": "180 to 182"}, {"compound": "CN(C)c1ccc(C2(c3ccc(N(C)C)cc3N(C)C)OC(=O)c3c(Cl)c(Cl)c(Cl)c(Cl)c32)cc1", "note": "(stereo not drawn)", "melting point": "227 to 229"}, {"compound": "Cc1ccc(C2CC(=O)c3c(C)coc3C2)cc1", "note": "(stereo not drawn)", "melting point": "113 to 114"}, {"compound": "CN1CCN(c2cccc(-c3cnn4c(N)c(Cc5cccc(Br)c5)cnc34)c2)CC1", "melting point": "170 to 171"}, {"compound": "OC1CSC(Oc2cncc(-c3ccnc(F)c3)c2)C(O)C1O", "note": "(stereo not drawn)", "melting point": 208}, {"compound": "COc1ccc(C2CCCCC2)cc1-c1csc(NC(=O)N2CCN(C[C@@H]3CCCN(CCC(=O)O)C3)CC2)n1", "melting point": 144}, {"compound": "CC(C)N(CCN(C(=O)N(C)C)c1cccc(N)n1)C(C)C", "melting point": "86 to 88"}, {"compound": "O=C(Cc1ccccc1)Nc1ncc(-c2ccc(O)cc2)nc1Cc1ccccc1", "melting point": "259 to 261"}, {"compound": "O=C(CCCCC(=O)Oc1ccc(N=Nc2ccccc2)cc1)Oc1ccc(N=Nc2ccccc2)cc1", "melting point": "176 to 177"}, {"compound": "CCCS(=O)(=O)NC(=O)CCc1cc(OC(C)C)nn1Cc1ccc(Cl)cc1Cl", "melting point": "124 to 126"}, {"compound": "CC12CCC(OC(=O)c3ccccc3)CC1=CCC1C2CCC2(C)C(=NO)CCC12", "note": "(stereo not drawn)", "melting point": "165 to 170"}, {"compound": "C=Cc1nc(NC)sc1-c1ccncc1", "melting point": "110 to 111"}, {"compound": "CCC1(O)CC(=O)OCc2c1cc1n(c2=O)Cc2c-1nc1ccccc1c2CCC(C)C", "note": "(stereo not drawn)", "melting point": 263}, {"compound": "CCOC(=O)c1cnn(-c2ccc(O)c(C#N)c2)c1", "melting point": "233 to 234"}, {"compound": "CCOc1ccc2c(c1)n(C1CCCCC1)c(=O)n2S(=O)(=O)c1ccc(C(=O)NC(C)(C)CN(C)C)cc1OC", "melting point": 161}, {"compound": "CS(=O)(=O)OC1CCc2ccccc2C1", "note": "(stereo not drawn)", "melting point": "60 to 62"}, {"compound": "COC(=O)c1c(C(=O)OC)c(-c2ccc(OC)c(OC)c2)c2sccc2c1OC", "melting point": 118}, {"compound": "Cc1ccc(-c2ccc3ccccc3c2C(=O)N(C)C)cc1", "melting point": "145 to 146"}, {"compound": "CCOC(=O)c1cc(OC(C)=O)c2c(OC)ccc(OC)c2c1", "melting point": "110 to 112"}, {"compound": "O=C(O)c1coc2c(Cl)cc(Cl)cc2c1=O", "melting point": 196}, {"compound": "CC(C)(N)c1ccc(-c2nc(Nc3cccc(C(F)(F)F)c3)ncc2C#N)cc1", "melting point": 192}, {"compound": "CN1C(=O)CCC1(O)c1ccc(Cl)c(S(=O)(=O)Nc2cc(C(C)(C)C)c(O)c(C(C)(C)C)c2)c1", "note": "(stereo not drawn)", "melting point": "120 to 130"}, {"compound": "Nc1ccc(-c2ccc(=O)[nH]n2)cc1Br", "melting point": "266 to 267"}, {"compound": "N#Cc1ccc(N(Cc2ccccc2)n2cnnc2)cc1-c1ccc(O)cc1", "melting point": "229 to 230"}]}]}
